Here are results for 16 molecules from article PMC7015555, “Transthyretin-Binding Activity of Complex Mixtures Representing the Composition of Thyroid-Hormone Disrupting Contaminants in House Dust and Human Serum” (Environmental Health Perspectives, 2020).

Experiment [1] deals with TTR. The settings on record: cited from earlier work; for IC50: read-out: IC50 (M), Radioactive Ligand Binding Assay data from the literature; for REP, Radioactive Ligand Binding Assay data from the literature: relative effect potency; for T4-TTR binding inhibition in the RLBA: at 10 µM (highest concentration).
For experiment [2], the target named is TTR (Homo sapiens, UniProt P02766). In words: FITC-T4 TTR competitive binding assay. The following applies: for REP (relative potency compared to T4): IC20 of T4 / IC20 of compound (Equation 14); for IC50: read-out: IC50; for T4EQ concentration (nmol/g dust): reported concentration of the compound in SRM2585 dust x REP; for inhibition of FITC-T4-TTR-binding: present study (Figure 1C); for maximum competitive potency at high test concentrations: Figure 1C.

The mark [3] stands for this setting: 20% inhibition of FITC-T4 binding to TTR, 30 nM TTR, 110 nM FITC-T4, 2 h at 4°C, pH 8.0.
The mark [4] stands for this setting: individual compounds, 30 nM TTR, 110 nM FITC-T4, 2 h at 4°C, pH 8.0, — = 50% inhibition level not reached (footnote g).
The mark [5] stands for this setting: inhibitor-TTR dissociation constant converted from IC20 (Equation 4), 4°C, read-out: Ki.

Molecules are shown by their SMILES. Where two headings read alike, the source gives them in different places.

As to `O=C(O)C(F)(F)C(F)(F)C(F)(F)C(F)(F)C(F)(F)C(F)(F)C(F)(F)C(F)(F)C(F)(F)C(F)(F)F` [PFUnDA, perfluoroundecanoic acid], in the experiment with TTR [1] (ref Weiss et al. 2015), the IC50 was 2.16e-05 M and the “REP, Radioactive Ligand Binding Assay data from the literature” value (“REP … from the literature” for short) is 0.003. Further, the 20% effect concentration (IC20) at TTR [2] (setting [3]) amounted to 1000 nM. Also, at TTR [2], the “REP (relative potency compared to T4)” value was found to be 0.021 and the “T4EQ concentration (nmol/g dust)” value is 0.002 nmol/g dust. The half-maximal inhibitory concentration (IC50) on TTR [2] (setting [4]) worked out at 3100 nM. Besides, the Ki at TTR [2] (read-out: Ki) came out at 2200 nM.

In the case of `O=C(O)C(F)(F)C(F)(F)C(F)(F)C(F)(F)C(F)(F)C(F)(F)C(F)(F)C(F)(F)C(F)(F)F` [PFDA, perfluorodecanoic acid], in the experiment on TTR [1] (ref Weiss et al. 2015), the IC50 is 8.95e-06 M and the “REP … from the literature” value was 0.007. Also, on TTR [2] (setting [3]), the IC20 came to 1700 nM. On TTR [2], the “REP (relative potency compared to T4)” value was 0.012 and the “T4EQ concentration (nmol/g dust)” value stood at 0.001 nmol/g dust. For the same molecule, on TTR [2] (setting [4]), the half-inhibitory concentration (IC50) amounted to 5400 nM. Besides, at TTR [2] (read-out: Ki), the Ki came out at 3700 nM.

Take `Clc1ccc(-c2cc(Cl)c(Cl)cc2Cl)cc1Cl` [CB-118, 2,3ʹ,4,4ʹ,5-pentachlorobiphenyl]: in the experiment on TTR [1] (ref Hamers et al. 2011), the “T4-TTR binding inhibition in the RLBA” value is given as <20% inhibition at 10 µM (Hamers et al. 2011). On TTR [2], the “REP (relative potency compared to T4)” value came out at 0.14, the “inhibition of FITC-T4-TTR-binding” value was more than 20%, the IC50 worked out at 560 nM and the “T4EQ concentration (nmol/g dust)” value came out at 0.011 nmol/g dust. The Ki at TTR [2] (setting [5]) is 320 nM. Further, on TTR [2] (pH 8), the IC20 is 160 nM.

Take `Oc1cc(Cl)ccc1Oc1ccc(Cl)cc1Cl` [Triclosan, 5-chloro-2-(2,4-dichlorophenoxy)phenol]: in the experiment on TTR [1] (ref Weiss et al. 2015), the IC50 was […] and the “REP … from the literature” value is […].

As for `Clc1cc(Cl)c(-c2cc(Cl)c(Cl)cc2Cl)cc1Cl` [CB-153, 2,2ʹ,4,4ʹ,5,5ʹ-hexachlorobiphenyl], in the experiment on TTR [1] (ref Weiss et al. 2015), the half-maximal inhibitory concentration (IC50) was more than 1.5e-05 M and the “REP … from the literature” value was less than 0.0037. For the same molecule, the “REP … from the literature” value in the experiment on TTR [1] (ref Hamers et al. (2011)) is on record as less than 0.0037. In the experiment with TTR [1] (–log(IC50), ref Excel Table S1), the “pIC50 in the RLBA” value is less than 4.8. Further, on TTR [2], the Ki amounted to 150 nM, the “maximum competitive potency at high test concentrations” value is recorded as “leveled off before reaching complete inhibition”, the “REP (relative potency compared to T4)” value was 0.27 and the IC50 amounted to 180 nM. For the same molecule, the “T4EQ concentration (nmol/g dust)” value at TTR [2] came out at 0.030 nmol/g dust. This molecule also displayed a 20% effect concentration (IC20) at TTR [2] (pH 8) of 77 nM.

In the case of `Oc1cc(Br)cc(Br)c1Oc1ccc(Br)cc1Br` [6-OH-BDE-47, 6-OH-2,2ʹ,4,4ʹ-tetrabromodiphenyl ether], in the experiment with TTR [1] (ref Weiss et al. 2015), the concentration for half-maximal inhibition (IC50) was 1.5e-07 M and the “REP … from the literature” value was 0.39. In addition, on TTR [2] (setting [3]), the IC20 is 31 nM. In addition, the “REP (relative potency compared to T4)” value on TTR [2] came to 0.68. For the same molecule, the IC50 at TTR [2] (setting [4]) was determined as 98 nM. Besides, the Ki at TTR [2] (setting [5]) came to 54 nM.

For `O=C(O)C(F)(F)C(F)(F)C(F)(F)C(F)(F)C(F)(F)C(F)(F)F` [PFHpA, perfluoroheptanoic acid], in the experiment with TTR [1] (ref Weiss et al. 2015), the IC50 is 1.57e-06 M and the “REP … from the literature” value is 0.039. Moreover, on TTR [2], the inhibitory constant (Ki) came to 640 nM, the “REP (relative potency compared to T4)” value turned out to be 0.071, the concentration for half-maximal inhibition (IC50) stood at 1200 nM and the “T4EQ concentration (nmol/g dust)” value is listed as 0.048 nmol/g dust. Further, at TTR [2] (pH 8), the IC20 was 300 nM.

With `Oc1c(Cl)cc(-c2ccc(Cl)c(Cl)c2)c(Cl)c1Cl` [4-OH-CB-107, 4-OH-2,3,3ʹ,4ʹ,5-pentachlorobiphenyl], in the experiment on TTR [1] (ref Weiss et al. 2015), the concentration for half-maximal inhibition (IC50) is 2.26e-08 M and the “REP … from the literature” value is given as 3.5. The molecule further gave a 20% effect concentration (IC20) at TTR [2] (setting [3]) of 34 nM. On TTR [2], the “REP (relative potency compared to T4)” value was determined as 0.63. For the same molecule, on TTR [2] (setting [4]), the IC50 was determined as 68 nM. Also, the Ki at TTR [2] (setting [5]) is 59 nM.

In the case of `Oc1c(Br)cc(Br)cc1Br` [2,4,6-TBP, 2,4,6-tribromophenol], in the experiment on TTR [1] (ref Weiss et al. 2015), the IC50 was 4.8e-09 M and the “REP … from the literature” value is on record as 10. In addition, on TTR [2], the affinity corresponds to a Ki of 5.5 nM, the “REP (relative potency compared to T4)” value was 2.4 and the IC50 worked out at 29 nM. For the same molecule, the IC20 on TTR [2] (pH 8) is 8.9 nM.

Take `Brc1ccc(Oc2cc(Br)c(Br)cc2Br)c(Br)c1` [BDE-99, 2,2ʹ,4,4ʹ,5-pentabromodiphenyl ether]: in the experiment with TTR [1] (ref Hamers et al. 2006), the “T4-TTR binding inhibition in the RLBA” value was <20% inhibition at 10 µM (Hamers et al. 2006). Besides, on TTR [2], the affinity corresponds to a Ki of 150 nM, the “maximum competitive potency at high test concentrations” value is listed as “leveled off before reaching complete inhibition”, the “REP (relative potency compared to T4)” value was determined as 0.29 and the “inhibition of FITC-T4-TTR-binding” value is listed as more than 20%. Besides, on TTR [2], the “T4EQ concentration (nmol/g dust)” value was 0.458 nmol/g dust. Also, the IC20 at TTR [2] (pH 8) was 73 nM.

For `O=C(O)C(F)(F)C(F)(F)C(F)(F)C(F)(F)C(F)(F)F` [PFHxA, perfluorohexanoic acid], the IC50 with TTR [1] (ref Weiss et al. 2015) is 8.22e-06 M. This molecule also displayed a 20% effect concentration (IC20) on TTR [2] (setting [3]) of 1600 nM. In addition, at TTR [2], the “REP (relative potency compared to T4)” value was 0.014 and the “T4EQ concentration (nmol/g dust)” value is given as 0.011 nmol/g dust. Moreover, the IC50 on TTR [2] (setting [4]) was 5600 nM. The inhibitory constant (Ki) on TTR [2] (read-out: Ki) was found to be 3400 nM.

Turning to `Oc1c(Cl)c(Cl)c(-c2cc(Cl)c(Cl)cc2Cl)c(Cl)c1Cl` [4-OH-CB-187, 4-OH-2,2ʹ,3,4ʹ,5,5ʹ,6-heptachlorobiphenyl], in the experiment on TTR [1] (ref Weiss et al. 2015), the concentration for half-maximal inhibition (IC50) is 1.98e-08 M and the “REP … from the literature” value is 4. Moreover, the IC20 on TTR [2] (setting [3]) worked out at 8.2 nM. Moreover, the “REP (relative potency compared to T4)” value on TTR [2] worked out at 2.6. Further, the half-inhibitory concentration (IC50) on TTR [2] (setting [4]) amounted to 17 nM. Moreover, at TTR [2] (setting [5]), the Ki is 4 nM.

On to `Oc1cc(Br)cc(Br)c1Oc1cc(Br)c(Br)cc1Br` [6ʹ-OH-BDE-99, 6ʹ-OH-2,2ʹ,4,4ʹ,5-pentabromodiphenyl ether], for which the “REP … from the literature” value in the experiment with TTR [1] (ref Marchesini et al. 2008) is recorded as 0.2. Besides, at TTR [2] (setting [3]), the 20% effect concentration (IC20) came to 8.4 nM. For the same molecule, on TTR [2], the “REP (relative potency compared to T4)” value amounted to 2.5. For the same molecule, the 50% inhibitory concentration (IC50) at TTR [2] (setting [4]) worked out at 20 nM. Moreover, the inhibition constant (Ki) on TTR [2] (setting [5]) turned out to be 4.5 nM.

`Oc1cc(Oc2ccc(Br)cc2Br)c(Br)cc1Br` [5-OH-BDE-47, 5-OH-2,2ʹ,4,4ʹ-tetrabromodiphenyl ether]: in the experiment with TTR [1] (ref Weiss et al. 2015), the IC50 was 2.5e-08 M and the “REP … from the literature” value is listed as 3. In addition, the IC20 at TTR [2] (setting [3]) is 14 nM. Also, the “REP (relative potency compared to T4)” value at TTR [2] is listed as 1.5. Also, the IC50 on TTR [2] (setting [4]) is 27 nM. In addition, the inhibitory constant (Ki) at TTR [2] (setting [5]) was 16 nM.

With `O=S(=O)(O)C(F)(F)C(F)(F)C(F)(F)C(F)(F)C(F)(F)C(F)(F)F` [PFHxS, perfluorohexane sulfonic acid], in the experiment with TTR [1] (ref Weiss et al. 2015), the IC50 is 7.17e-07 M and the “REP … from the literature” value was 0.085. Also, on TTR [2], the inhibitory constant (Ki) turned out to be 280 nM, the “REP (relative potency compared to T4)” value turned out to be 0.16, the IC50 was 460 nM and the “T4EQ concentration (nmol/g dust)” value was found to be 0.561 nmol/g dust. This molecule had an IC20 at TTR [2] (pH 8) of 140 nM.

Take `O=S(=O)(O)C(F)(F)C(F)(F)C(F)(F)C(F)(F)C(F)(F)C(F)(F)C(F)(F)C(F)(F)F` [PFOS, perfluorooctane sulfonic acid]: in the experiment with TTR [1] (ref Weiss et al. 2015), the IC50 was 9.4e-07 M and the “REP … from the literature” value is recorded as 0.065. Besides, the 20% effect concentration (IC20) at TTR [2] (setting [3]) was 82 nM. On TTR [2], the “REP (relative potency compared to T4)” value came to 0.26 and the “T4EQ concentration (nmol/g dust)” value is on record as 1.201 nmol/g dust. Further, at TTR [2] (setting [4]), the 50% inhibitory concentration (IC50) was 250 nM. Also, on TTR [2] (read-out: Ki), the Ki came out at 160 nM.
